Source: US8933133B2, “Animal feeds containing polyols” (ADM Alliance Nutrition, Inc., priority 2006, dated 2015)

Tests used:
rumen fluid = assay: In vitro fermentation of polyols in an artificial rumen environment using rumen fluid as inoculum; details: for fermentation rate: in vitro rumen fermentation, gas production monitored every 30 minutes; for fermentation rate / extent of fermentation: in words; for extent of fermentation: by 24 hours, judged from final gas volume and VFA
Method: Fermentations were performed on two separate days where gas production was monitored every 30 minutes. In addition, pH, ammonia (NH3), and volatile fatty acid (“VFA”) production were measured after 24 hours. Duplicate samples of each compound were evaluated using in vitro rumen fermentations.
Duplicate samples of these compounds were fermented in vitro using rumen fluid as inoculum. Samples were weighed into 150 mL serum bottles (0.3 grams per bottle) using a CO2 atmosphere to provide an anaerobic environment. A standard buffered media was prepared (no additional feed matter was included in the fermentation), degassed, and added to the serum bottles (see, Goering, H. K., and P. J. Van Soest, “Forage Fiber Analyses (Apparatus, Reagents, Procedures, and Some Applications),” Agric. Handbook, No 379, ARS-USDA, Washington, D.C., 1970). Rumen fluid was obtained from a dairy cow, filtered, and added to the serum bottles as 20% of the total fluid addition (30 mL total fluid volume). The serum bottles were sealed, placed in an incubator, and the fermentation was allowed to proceed. Fermentations were performed on two separate days, during which time gas production was monitored every 30 minutes and pH, NH3, and VFA production measured after 24 hours.

[1] = tested on: circulating non-esterified fatty acids (NEFA); assay: Circulating non-esterified fatty acids in lambs fed a polyol supplement; type: in vivo; details: lambs fed restricted diet (75% of maintenance energy requirements), supplement 25 to 45 grams/lamb, blood 1-24 hours after dose
Method: In this Example, the effect of a diet comprising an isolated or purified polyol on the level of circulating non-esterified fatty acids (“NEFA”) in lambs was examined.
Four lambs were used in this Example. The lambs were fed a basal diet the first week followed by at least 4 weeks during which the supplement treatments were evaluated. The lambs were fed a diet supplement comprising sorbitan during the second and third weeks of the treatment. The lambs were fed a diet supplement comprising polyglycerol during the fourth and fifth weeks of the treatment. The diet supplements were fed separate from the basal diet feed.

| Structure (SMILES) | rumen escape (rumen fluid; estimated from rate of in vitro fermentation / gas production, by weight escaping fermentation in the rumen) | fermentation rate (rumen fluid) | change in circulating NEFA levels [1] | extent of fermentation (rumen fluid) |
| --- | --- | --- | --- | --- |
| OC[C@@H](O)[C@H]1OC[C@H](O)[C@H]1O [Sorbitan, 1,4-anhydro-D-sorbitol] | greater than 80% | slower than glucose, sorbitol, or glycerol | decrease in circulating NEFA levels | – |
| OC[C@@H](O)[C@@H](O)[C@H](O)[C@@H](O)CO [Sorbitol, sorbitol] | – | slower than glucose | – | largely fermented by 24 hours |
| OCC(O)CO [Glycerol, glycerol] | – | – | – | largely fermented by 24 hours |
